In the assay the test system is nude mice, LX-1 lung xenograft intrarenal, tumor weight T/C. Put plainly: NCI In Vivo Anticancer Drug Screen. Data for tumor model Human Lung LX-1 Xenograft (intrarenal inoculation) in NU/NU Swiss (nude) mice. To be noted: endpoint: mean tumor weight change, higher = larger tumour. An outline of the steps:
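Activity was scored by measuring tumors in treated animals and in vehicle controls, then reporting the treated result as a fraction of the control result.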
In general terms: A xenograft is tissue or cells of one species grown in another, often human tumour cells in immunodeficient mice.

[1] abbreviates: dose: 100.0 mg/kg/injection, schedule: Q04DX003 (sc), vehicle: saline with Tween-80.
Setting [2] is: dose: 200.0 mg/kg/injection, schedule: Q04DX003 (sc), vehicle: saline with Tween-80.
[3] abbreviates: dose: 400.0 mg/kg/injection, schedule: Q04DX003 (sc), vehicle: saline with Tween-80.
[4] abbreviates: dose: 800.0 mg/kg/injection, schedule: Q04DX003 (sc), vehicle: saline with Tween-80.
The mark [5] stands for this setting: dose: 300.0 mg/kg/injection, schedule: Q04DX003 (sc), vehicle: saline with Tween-80.
[6] abbreviates: dose: 300.0 mg/kg/injection, schedule: Q04DX003 (sc), vehicle: suspension in saline.
[7] abbreviates: dose: 600.0 mg/kg/injection, schedule: Q04DX003 (sc), vehicle: suspension in saline.
Setting [8] is: dose: 1200.0 mg/kg/injection, schedule: Q04DX003 (sc), vehicle: suspension in saline.
Where [9] appears, read: dose: 300.0 mg/kg/injection, schedule: Q04DX003 (sc), vehicle: Klucel (hydroxypropylcellulose) (HPC).
Setting [10] is: dose: 600.0 mg/kg/injection, schedule: Q04DX003 (sc), vehicle: Klucel (hydroxypropylcellulose) (HPC).
[11] abbreviates: dose: 1200.0 mg/kg/injection, schedule: Q04DX003 (sc), vehicle: Klucel (hydroxypropylcellulose) (HPC).
[12] abbreviates: dose: 2400.0 mg/kg/injection, schedule: Q04DX003 (sc), vehicle: Klucel (hydroxypropylcellulose) (HPC).
Where [13] appears, read: dose: 75.0 mg/kg/injection, schedule: Q04DX003 (sc), vehicle: saline with Tween-80.
Setting [14] is: dose: 150.0 mg/kg/injection, schedule: Q04DX003 (sc), vehicle: saline with Tween-80.
[15] abbreviates: dose: 50.0 mg/kg/injection, schedule: Q01DX010 (sc), vehicle: saline with Tween-80.
Where [16] appears, read: dose: 37.5 mg/kg/injection, schedule: Q04DX003 (sc), vehicle: saline with Tween-80.

Molecules are shown by their SMILES. Results filed as inconclusive are left out.

As for `CC1(C)COCN1COC1CCCCC1`, the T/C reads like this: under setting [1], 76 % of control; under setting [2], 119 % of control; under setting [3], 68 % of control; under setting [4], 110 % of control.
Take `NCC1CCC(C(=O)O)CC1` (stereo not given): the T/C was 167 % of control under setting [5]; 104 % of control (dose: 600.0 mg/kg/injection, schedule: Q04DX003 (sc), vehicle: saline with Tween-80); 75 % of control (dose: 1200.0 mg/kg/injection, schedule: Q04DX003 (sc), vehicle: saline with Tween-80); 79 % of control (dose: 2400.0 mg/kg/injection, schedule: Q04DX003 (sc), vehicle: saline with Tween-80).
With `COc1cc2c(ccc3c4cc(OC)c(OC)cc4c[n+](C)c23)cc1O`, the T/C runs as follows: (dose: 300.0 mg/kg/injection, schedule: Q04DX003 (sc), vehicle: saline) 107 % of control; (dose: 600.0 mg/kg/injection, schedule: Q04DX003 (sc), vehicle: saline) 79 % of control; (dose: 1200.0 mg/kg/injection, schedule: Q04DX003 (sc), vehicle: saline) 46 % of control; (dose: 2400.0 mg/kg/injection, schedule: Q04DX003 (sc), vehicle: saline) 65 % of control.
For the molecule `CCCCn1cnc2c(=S)nc[nH]c21`, the T/C is, setting by setting: under setting [6], 69 % of control; under setting [7], 53 % of control; under setting [8], 61 % of control; (dose: 2400.0 mg/kg/injection, schedule: Q04DX003 (sc), vehicle: suspension in saline) 57 % of control.
As for `Cc1ccc(NCC2(/N=C/c3ccccc3)OC(CO)C(O)C2O)cc1` (stereo not given), the T/C reads like this: under setting [9], 122 % of control; under setting [10], 98 % of control; under setting [11], 80 % of control; under setting [12], 98 % of control.
For `Clc1ccc2nnnn2n1`, the T/C by setting is: (dose: 50.0 mg/kg/injection, schedule: Q04DX003 (sc), vehicle: saline with Tween-80) 72 % of control; under setting [1], 88 % of control; under setting [2], 85 % of control; under setting [3], 93 % of control.
Consider `COC1CC(C)C(OC)C2=CC(=O)C=C(NC(=O)/C(C)=C/C=C\C(C)C(OC(N)=O)/C(C)=C\C(C)C1OC)C2=O` (stereo not given), for which the T/C was 35 % of control (dose: 12.5 mg/kg/injection, schedule: Q04DX003 (sc), vehicle: saline + alcohol); 87 % of control (dose: 25.0 mg/kg/injection, schedule: Q04DX003 (sc), vehicle: saline + alcohol); 73 % of control (dose: 50.0 mg/kg/injection, schedule: Q04DX003 (sc), vehicle: saline + alcohol).
With `Cc1cc(=O)n2c3c(c4c(cc13)c(CN(C)C)cc(=O)n4C)OC2`, the T/C is 59 % of control under setting [13], 89 % of control under setting [14] and 55 % of control under setting [5].
In the case of `O=C(N/N=C\c1cc(Br)cc(Br)c1O)N/N=C/c1cc(Br)cc(Br)c1O`, the T/C runs as follows: under setting [15], 373 % of control; (dose: 800.0 mg/kg/injection, schedule: Q01DX010 (sc), vehicle: saline with Tween-80) 67 % of control.
`CN(C1=NS(=O)(=O)N=C(N(C)c2ccccc2)O1)c1ccccc1`: the T/C reads like this: under setting [9], 66 % of control; under setting [10], 61 % of control; under setting [11], 79 % of control; under setting [12], 91 % of control.
Consider `N[C@@H](Cc1ccc(N(CCCl)CCCl)cc1)C(=O)O`, for which the T/C (dose: 1.0 mg/kg/injection, schedule: Q01DX010 (sc), vehicle: saline) was 107 % of control.
On to `N=C(N)SCc1cccc2c(=O)cc(-c3ccccc3)oc12`, for which the T/C by setting is: under setting [6], 51 % of control; under setting [7], 39 % of control; under setting [8], 63 % of control.
For the molecule `O=C(O)CC(NC(=O)CP(=O)(O)O)C(=O)O.[NH-]C1CCCCC1[NH-].[Pt+2]` (stereo not given), the T/C reads like this: (dose: 6.25 mg/kg/injection, schedule: Q04DX003 (sc), vehicle: dextrose) 86 % of control; (dose: 12.5 mg/kg/injection, schedule: Q04DX003 (sc), vehicle: dextrose) 72 % of control; (dose: 25.0 mg/kg/injection, schedule: Q04DX003 (sc), vehicle: dextrose) 54 % of control.
Turning to `CN=S(=O)(OCCCCCOS(=O)(=NC)c1ccccc1)c1ccccc1` (stereo not given), the T/C is 36 % of control under setting [2], 77 % of control under setting [3] and 57 % of control under setting [4].
For the molecule `COc1cccc2c1C(=O)c1c(O)c3c(c(O)c1C2=O)C[C@@](O)(C(C)=O)C[C@@H]3OC1CC(N(C)C)C(O)C(C)O1` (stereo not given in full), the T/C by setting is: (dose: 2.0 mg/kg/injection, schedule: Q01DX010 (sc), vehicle: water) 200 % of control; (dose: 4.0 mg/kg/injection, schedule: Q01DX010 (sc), vehicle: water) 80 % of control; (dose: 6.0 mg/kg/injection, schedule: Q04DX003 (sc), vehicle: water) 59 % of control; (dose: 12.0 mg/kg/injection, schedule: Q04DX003 (sc), vehicle: water) 88 % of control.
`Cc1cc2c(C(C)C)c(O)c(O)c(C=O)c2c(O)c1-c1c(C)cc2c(C(C)C)c(O)c(O)c(C=O)c2c1O`: the T/C under setting [16] was 85 % of control and the T/C under setting [13] is 75 % of control.
Turning to `COc1cc(C(C)(C)C)cc(OC)c1C(O)(c1c(OC)cc(C(C)(C)C)cc1OC)c1c(OC)cc(C(C)(C)C)cc1OC`, the T/C reads like this: under setting [1], 91 % of control; under setting [2], 68 % of control; under setting [3], 98 % of control; under setting [4], 86 % of control.
As to `Cc1cc(NCCCCCCNc2cc(C)nc3cc(N(C)C)ccc23)c2ccc(N(C)C)cc2n1`, the T/C runs as follows: (dose: 75.0 mg/kg/injection, schedule: Q04DX003 (sc), vehicle: distilled water + Tween-80 + alcohol) 46 % of control; (dose: 150.0 mg/kg/injection, schedule: Q04DX003 (sc), vehicle: distilled water + Tween-80 + alcohol) 44 % of control.
In the case of `CC(=O)OC1=NC(C)c2c1cc(OC(C)=O)[nH]c2=O` (stereo not given), the T/C is 90 % of control (dose: 150.0 mg/kg/injection, schedule: Q04DX003 (sc), vehicle: Klucel (hydroxypropylcellulose) (HPC)); 87 % of control under setting [9]; 87 % of control under setting [10]; 74 % of control under setting [11].
As to `Nc1nc(N)c2c(ccc3c2ccn3Cc2cccc([N+](=O)[O-])c2)n1`, the T/C was 100 % of control under setting [16], 69 % of control under setting [13] and 50 % of control under setting [14].
On to `CC1OC(OC2CC(O)(C(=O)CO)Cc3c(O)c4c(c(O)c32)C(=O)c2ccccc2C4=O)CC(N)C1O` (stereo not given), for which the T/C runs as follows: (dose: 0.5 mg/kg/injection, schedule: Q01DX010 (sc), vehicle: water) 57 % of control; (dose: 1.0 mg/kg/injection, schedule: Q01DX010 (sc), vehicle: water) 83 % of control.
As for `O=c1nc(Oc2ccccc2)nc2ncccn12`, the T/C is 190 % of control (dose: 25.0 mg/kg/injection, schedule: Q01DX010 (sc), vehicle: saline with Tween-80); 165 % of control under setting [15]; 118 % of control (dose: 100.0 mg/kg/injection, schedule: Q01DX010 (sc), vehicle: saline with Tween-80); 210 % of control (dose: 200.0 mg/kg/injection, schedule: Q01DX010 (sc), vehicle: saline with Tween-80).
`COc1ccc(C(=O)C(CN(C)C)CN(C)C)cc1`: the T/C is 68 % of control (dose: 12.5 mg/kg/injection, schedule: Q04DX003 (sc), vehicle: saline); 113 % of control (dose: 25.0 mg/kg/injection, schedule: Q04DX003 (sc), vehicle: saline); 64 % of control (dose: 50.0 mg/kg/injection, schedule: Q04DX003 (sc), vehicle: saline).
With `C(CC1CO1)C1CO1` (stereo not given), the T/C is, setting by setting: (dose: 25.0 mg/kg/injection, schedule: Q01DX010 (sc), vehicle: saline) 104 % of control; (dose: 50.0 mg/kg/injection, schedule: Q01DX010 (sc), vehicle: saline) 64 % of control; (dose: 100.0 mg/kg/injection, schedule: Q01DX010 (sc), vehicle: saline) 42 % of control.
As for `N=C1CCCS1`, the T/C is 121 % of control (dose: 18.75 mg/kg/injection, schedule: Q04DX003 (sc), vehicle: saline); 87 % of control (dose: 37.5 mg/kg/injection, schedule: Q04DX003 (sc), vehicle: saline); 113 % of control (dose: 75.0 mg/kg/injection, schedule: Q04DX003 (sc), vehicle: saline).

The record behind these values is PubChem BioAssay AID264 (DTP/NCI, 2004).
